Activity calls are given as the source filed them. The rule behind the calls is not given here.
How the values were obtained:
[1] = molecular target: Cytochrome P450 3A4 (Homo sapiens, UniProt P08684); assay: Inhibition of CYP3A4 (unknown origin) using testosterone as substrate; type: ADME
[2] = Toxicity in SCID mouse xenografted with human H838 cells assessed as body weight loss at 30 mg/kg, iv measured after 3 weeks; type: organism-based; details: in vivo, 504 h
[3] = tested on: NCI-H1792; assay: Antiproliferative activity against human SMARCA4-wild type NCI-H1792 cells assessed as maximal inhibition of cell growth measured after 7 days by WST-8 assay relative to control; type: functional; details: time 7 day
[4] = tested on: NCI-H1792; assay: Antiproliferative activity against human SMARCA4-wild type NCI-H1792 cells assessed as inhibition of cell growth measured after 7 days by WST-8 assay; type: functional; details: NCI-H1792, 168 h, time 7 day
[5] = Toxicity in SCID mouse assessed as body weight loss at 50 mg/kg, iv twice a week; type: organism-based; details: in vivo
[6] = Drug uptake in tumor of mouse xenografted with human H838 cells at 10 mg/kg, iv single dose measured after 48 hrs by LC-MS/MS analysis; type: ADME, organism-based, Neoplasm, NCI-H838; details: read-out: Drug uptake
[7] = Drug uptake in tumor of mouse xenografted with human H838 cells at 10 mg/kg, iv single dose measured after 168 hrs by LC-MS/MS analysis; type: ADME, organism-based, Neoplasm, NCI-H838; details: read-out: Drug uptake
[8] = Volume of distribution of steady state in rat at 1 mg/kg, iv; type: ADME, organism-based; details: in vivo, read-out: Vdss
[9] = Half life in mouse at 1 mg/kg, iv; type: ADME, organism-based; details: in vivo
[10] = Drug uptake in tumor of mouse xenografted with human H838 cells at 10 mg/kg, iv single dose measured after 6 hrs by LC-MS/MS analysis; type: ADME, organism-based, Neoplasm, NCI-H838; details: read-out: Drug uptake
[11] = tested on: NCI-H838; assay: In vivo anti-tumor activity against SMARCA4-deficient human NCI-H838 cells xenografted in SCID mouse assessed as assessed as inhibition of tumor growth at 10 to 30 mg/kg, iv weekly once; type: functional, organism-based; details: dose 10-30 mg/kg
[12] = Plasma concentration in mouse xenografted with human MV4-11 cells at 30 mg/kg, iv single dose measured after 24 hrs by LC-MS/MS analysis; type: ADME, organism-based
[13] = Cmax in mouse at 1 mg/kg, iv; type: ADME, organism-based; details: in vivo
[14] = molecular target: SWI/SNF-related matrix-associated actin-dependent regulator of chromatin subfamily A member 2 (Homo sapiens, UniProt P51531); assay: Inhibition of human SMARCA2 by TR-FRET assay
Sequence of SWI/SNF-related matrix-associated actin-dependent regulator of chromatin subfamily A member 2 (P51531 whole entry): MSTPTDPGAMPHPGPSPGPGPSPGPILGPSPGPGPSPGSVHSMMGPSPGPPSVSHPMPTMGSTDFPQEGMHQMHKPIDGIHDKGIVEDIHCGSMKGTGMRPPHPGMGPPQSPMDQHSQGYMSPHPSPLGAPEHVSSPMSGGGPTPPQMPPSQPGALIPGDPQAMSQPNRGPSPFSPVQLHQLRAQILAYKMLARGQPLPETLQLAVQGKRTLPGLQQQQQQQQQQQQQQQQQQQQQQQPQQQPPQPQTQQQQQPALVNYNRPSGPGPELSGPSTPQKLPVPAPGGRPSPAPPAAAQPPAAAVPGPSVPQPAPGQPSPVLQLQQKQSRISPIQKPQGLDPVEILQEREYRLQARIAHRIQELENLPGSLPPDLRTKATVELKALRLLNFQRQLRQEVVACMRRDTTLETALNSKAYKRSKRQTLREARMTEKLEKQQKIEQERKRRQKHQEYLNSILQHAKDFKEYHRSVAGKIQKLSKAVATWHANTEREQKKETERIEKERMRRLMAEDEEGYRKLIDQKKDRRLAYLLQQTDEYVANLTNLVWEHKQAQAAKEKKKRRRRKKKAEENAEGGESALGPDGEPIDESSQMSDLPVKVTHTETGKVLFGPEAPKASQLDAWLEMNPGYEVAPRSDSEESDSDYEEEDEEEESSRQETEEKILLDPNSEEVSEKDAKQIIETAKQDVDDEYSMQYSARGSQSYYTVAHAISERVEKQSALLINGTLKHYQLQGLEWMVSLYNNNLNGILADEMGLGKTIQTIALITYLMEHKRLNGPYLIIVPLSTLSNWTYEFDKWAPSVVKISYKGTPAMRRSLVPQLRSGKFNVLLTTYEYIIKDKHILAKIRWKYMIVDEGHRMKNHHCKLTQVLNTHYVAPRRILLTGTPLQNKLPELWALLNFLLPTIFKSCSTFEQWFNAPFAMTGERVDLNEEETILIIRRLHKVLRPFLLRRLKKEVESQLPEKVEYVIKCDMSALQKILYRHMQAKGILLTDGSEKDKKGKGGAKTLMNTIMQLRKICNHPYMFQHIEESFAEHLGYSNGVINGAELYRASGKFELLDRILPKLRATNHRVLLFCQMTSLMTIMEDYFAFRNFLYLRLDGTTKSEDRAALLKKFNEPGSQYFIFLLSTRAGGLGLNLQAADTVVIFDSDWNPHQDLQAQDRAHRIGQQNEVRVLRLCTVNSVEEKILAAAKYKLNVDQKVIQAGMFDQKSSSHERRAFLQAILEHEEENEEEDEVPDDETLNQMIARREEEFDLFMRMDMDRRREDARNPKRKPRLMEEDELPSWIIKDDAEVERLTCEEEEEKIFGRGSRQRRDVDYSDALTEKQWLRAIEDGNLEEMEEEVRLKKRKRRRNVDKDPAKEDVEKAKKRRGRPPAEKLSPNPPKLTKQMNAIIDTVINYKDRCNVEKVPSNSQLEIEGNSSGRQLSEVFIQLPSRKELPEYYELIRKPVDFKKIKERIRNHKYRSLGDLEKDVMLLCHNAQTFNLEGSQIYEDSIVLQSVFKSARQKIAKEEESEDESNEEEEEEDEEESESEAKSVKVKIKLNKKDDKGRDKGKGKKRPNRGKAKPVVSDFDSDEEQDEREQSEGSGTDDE

[15] = Plasma stability in human plasma assessed as half life; type: ADME, cell-free
[16] = Antiproliferative activity against human SMARCA4-deficient NCI-H1693 cells assessed as maximal inhibition of cell growth measured after 7 days by WST-8 assay relative to control; type: functional; details: time 7 day
[17] = Antiproliferative activity against human SMARCA4-deficient NCI-H1944 cells assessed as inhibition of cell growth measured after 7 days by WST-8 assay; type: functional; details: NCI-H1944, 168 h, time 7 day
[18] = Plasma concentration in SCID mouse xenografted with human NCI-H838 cells at 10 mg/kg, iv measured after 96 hrs by LC-MS/MS analysis; type: ADME, organism-based
[19] = Volume of distribution of steady state in mouse at 1 mg/kg, iv; type: ADME, organism-based; details: in vivo, read-out: Vdss
[20] = Antiproliferative activity against human SMARCA4-deficient NCI-H1944 cells assessed as maximal inhibition of cell growth measured after 7 days by WST-8 assay relative to control; type: functional; details: time 7 day
[21] = Toxicity in SCID mouse assessed as toxicity signs at 50 mg/kg, iv twice a week; type: organism-based; details: in vivo
[22] = Antiproliferative activity against human […] NCI-H1975 cells assessed as maximal inhibition of cell growth measured after 7 days by WST-8 assay relative to control; type: functional; details: time 7 day
[23] = Clearance in rat at 1 mg/kg, iv; type: ADME, organism-based; details: in vivo
[24] = Drug uptake in tumor of human NCI-H838 cells xenografted SCID mouse model at 10 mg/kg, iv measured after 168 hrs by LC-MS/MS analysis; type: ADME, organism-based, Neoplasm; details: read-out: Drug uptake
[25] = Toxicity in SCID mouse xenografted with human H838 cells assessed as toxicity signs at 30 mg/kg, iv measured after 3 weeks; type: organism-based; details: in vivo, 504 h
[26] = tested on: NCI-H838; assay: In vivo anti-tumor activity against human NCI-H838 cells xenografted in SCID mouse assessed as assessed as inhibition of tumor growth at 10 mg/kg, iv treated for 3 weeks measured after treatment stop; type: functional, organism-based
[27] = Antiproliferative activity against human […] NCI-H1975 cells assessed as inhibition of cell growth measured after 7 days by WST-8 assay; type: functional; details: NCI-H1975, 168 h, time 7 day
[28] = Plasma stability in mouse plasma assessed as half life; type: ADME, cell-free
[29] = Drug uptake in tumor of human NCI-H838 cells xenografted SCID mouse model at 10 mg/kg, iv measured after 48 hrs by LC-MS/MS analysis; type: ADME, organism-based, Neoplasm; details: read-out: Drug uptake
[30] = Drug uptake in tumor of human NCI-H838 cells xenografted SCID mouse model at 10 mg/kg, iv measured after 96 hrs by LC-MS/MS analysis; type: ADME, organism-based, Neoplasm; details: read-out: Drug uptake
[31] = Plasma concentration in SCID mouse xenografted with human NCI-H838 cells at 10 mg/kg, iv measured after 168 hrs by LC-MS/MS analysis; type: ADME, organism-based; details: in vivo, iv, 10 mg/kg, 168 h
[32] = Metabolic stability in mouse liver microsomes assessed as half life; type: ADME, Microsome
[33] = tested on: NCI-H838; assay: In vivo anti-tumor activity against human NCI-H838 cells xenografted in SCID mouse assessed as assessed as inhibition of tumor growth at 30 mg/kg, iv measured after 3 weeks relative to control; type: functional; details: NCI-H838, 504 h, read-out: TGI
[34] = Antiproliferative activity against human SMARCA4-deficient NCI-H1568 cells assessed as maximal inhibition of cell growth measured after 7 days by WST-8 assay relative to control; type: functional; details: time 7 day
[35] = Plasma concentration in SCID mouse xenografted with human NCI-H838 cells at 10 mg/kg, iv measured after 24 hrs by LC-MS/MS analysis; type: ADME, organism-based
[36] = Clearance in mouse at 1 mg/kg, iv; type: ADME, organism-based; details: in vivo
[37] = Drug uptake in tumor of mouse xenografted with human MV4-11 cells at 30 mg/kg, iv single dose measured after 96 hrs by LC-MS/MS analysis; type: ADME, organism-based, Neoplasm; details: read-out: Drug uptake
[38] = tested on: SK-MEL-28; assay: Antiproliferative activity against human SMARCA4-wild type SK-MEL-28 cells assessed as maximal inhibition of cell growth measured after 7 days by WST-8 assay relative to control; type: functional; details: time 7 day
[39] = Antiproliferative activity against human SMARCA4-deficient NCI-H1693 cells assessed as inhibition of cell growth measured after 7 days by WST-8 assay; type: functional; details: NCI-H1693, 168 h, time 7 day
[40] = tested on: SK-MEL-5; assay: Antiproliferative activity against human SMARCA4-deficient SK-MEL-5 cells assessed as inhibition of cell growth measured after 7 days by WST-8 assay; type: functional; details: SK-MEL-5, 168 h, time 7 day
[41] = Plasma concentration in SCID mouse xenografted with human NCI-H838 cells at 10 mg/kg, iv measured after 48 hrs by LC-MS/MS analysis; type: ADME, organism-based

Sequence of Cytochrome P450 3A4 (P08684 whole entry): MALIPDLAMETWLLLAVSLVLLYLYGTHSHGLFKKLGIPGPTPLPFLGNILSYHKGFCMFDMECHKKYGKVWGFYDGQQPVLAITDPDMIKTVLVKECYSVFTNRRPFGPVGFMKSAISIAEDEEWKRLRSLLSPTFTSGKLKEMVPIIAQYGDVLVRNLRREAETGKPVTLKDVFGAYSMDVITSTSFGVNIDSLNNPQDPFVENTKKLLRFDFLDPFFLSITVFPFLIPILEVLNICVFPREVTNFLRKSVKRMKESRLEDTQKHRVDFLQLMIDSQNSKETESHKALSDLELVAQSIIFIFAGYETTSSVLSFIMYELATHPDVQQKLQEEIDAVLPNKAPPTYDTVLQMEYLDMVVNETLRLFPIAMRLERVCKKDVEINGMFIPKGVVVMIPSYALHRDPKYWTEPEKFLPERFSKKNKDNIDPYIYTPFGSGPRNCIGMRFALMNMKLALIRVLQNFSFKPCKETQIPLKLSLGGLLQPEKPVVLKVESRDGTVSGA

In the case of `Cc1ncsc1-c1ccc([C@H](CN2CCOCC2)NC(=O)[C@@H]2C[C@@H](O)CN2C(=O)[C@@H](n2cc([C@H]3CC[C@H](CN4CCC(c5ccc6c(c5)-n5c(nc(=O)c7c(Cl)cccc75)C65CCCCC5)CC4)CC3)nn2)C(C)(C)C)cc1`, the IC50 [1] is reported as over 100000 nM, the Activity [2] is reported as “Non-toxic” and the Imax [3] is reported as 80%. The GI50 [4] was over 10000 nM, the Activity [5] was “Non-toxic” and the concentration at 48 h [6] was 437 ng/mL. It also gave a concentration at 168 h [7] of 169 ng/mL, a Vd [8] of 0.9 L/kg and a half-life [9] of 8.4 h. For the same molecule, the concentration at 6 h [10] was 608 ng/mL, the Activity [11] was “Active” and the concentration at 24 h [12] was 139 ng/mL. For the same molecule, the Cmax [13] was 2230 ng/mL, the IC50 [14] was 42.2 nM and the half-life [15] was over 2 h. It also gave an Imax [16] of 85%, a GI50 [17] of 9.8 nM and a concentration at 96 h [18] of 6.8 ng/mL. For the same molecule, the Vd [19] was 1.9 L/kg, the Imax [20] was 71% and the Activity [21] was “Non-toxic”. The Imax [22] was 65%, the clearance [23] was 22 mL/min/kg and the concentration at 168 h [24] was 169 ng/mL. The Activity [25] was “Non-toxic”, the Activity [26] was “inactive” and the GI50 [27] was over 10000 nM. It also gave a half-life [28] of over 2 h, a concentration at 48 h [29] of 437 ng/mL and a concentration at 96 h [30] of 268 ng/mL. The Cp [31] was “Below_limit_of_detection”, the half-life [32] was over 1 h and the inhibition in vivo at 30 mg/kg [33] was 91%. For the same molecule, the Imax [34] was 86%, the concentration at 24 h [35] was 50 ng/mL and the clearance [36] was 9.2 mL/min/kg. It also gave a concentration at 96 h [37] of 1640 ng/mL, an Imax [38] of 55% and a GI50 [39] of 4.8 nM. The GI50 [40] was 1.5 nM and the concentration at 48 h [41] was 15 ng/mL.
